Results: US20110224208A1, “NOVEL INHIBITORS OF FLAVIVIRUS REPLICATION” (KATHOLIEKE UNIVERSITEIT LEUVEN, K.U. LEUVEN R&D, priority 2008, published 2011)
≈ marks a conversion by molar mass, not a printed value.

Key:
[1] = system: HCV replicon I389luc-ubi-neo/NS3-3'/5.1; assay: Anti-HCV replicon assay (luciferase activity) in Huh-5-2 cells; assay type: cell-based, Hepatitis C virus; settings: Hepatitis C virus, Huh-5-2, 72 h, concentration required to inhibit luciferase activity in the replicon system by 50%
Summary of the method: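 Huh-5-2 cells carrying the luciferase HCV replicon, seeded 24 h, then exposed to serial compound dilutions without G418 for 72 h at 37° C, 5% CO2. Replication read as luciferase luminescence, expressed as percentage of untreated cultures; culture density measured in parallel by MTS.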

[2] = Proliferation of exponentially growing Huh-5-2 cells (MTS method); settings: human, CC50, concentration required to inhibit the proliferation of exponentially growing Huh-5-2 cells by 50%; Table 2
Experimental: Cells were seeded at a density of 7000 cells per well in 96 well View Plate™ (Packard) in medium containing the same components as described above, except for G418. Cells were allowed to adhere and proliferate for 24 hr. At that time, culture medium was removed and serial dilutions of the test compounds were added in culture medium lacking G418. Interferon alfa 2a (500 IU) was included as a positive control. Plates were further incubated at 37° C. and 5% CO2 for 72 hours. Replication of the HCV replicon in Huh-5 cells results in luciferase activity in the cells. Luciferase activity is measured by adding 50 μl of 1×Glo-lysis buffer (Promega) for 15 minutes followed by 50 ul of the Steady-Glo Luciferase assay reagent (Promega). Luciferase activity is measured with a luminometer and the signal in each individual well is expressed as a percentage of the untreated cultures. […] Instead the density of the culture is measured by means of the MTS method (Promega).

With COCCN1C(=O)c2ccccc2C(C(=O)Nc2cc(OC)cc(OC)c2)C1c1cccs1 (centres unmarked) [C130, N-(3,5-dimethoxyphenyl)-2-(2-methoxyethyl)-1-oxo-3-(thiophen-2-yl)-1,2,3,4-tetrahydroisoquinoline-4-carboxamide] the IC50 [1] was 0.8 µg/mL (≈ 1.71 µM) and the CC50 at 72 h [2] was 91.8 µg/mL (≈ 197 µM).

For COCCN1C(=O)c2ccccc2C(C(=O)Nc2ccc3[nH]c(C)cc3c2)C1c1cccs1 (centres unmarked) [C131, 2-(2-methoxyethyl)-N-(2-methyl-1H-indol-5-yl)-1-oxo-3-(thiophen-2-yl)-1,2,3,4-tetrahydroisoquinoline-4-carboxamide], the IC50 [1] was 1.12 µg/mL (≈ 2.44 µM) and the CC50 at 72 h [2] was 69.7 µg/mL (≈ 152 µM).

COCCN1C(=O)c2ccccc2C(C(=O)Nc2cccc(OC)c2)C1c1ccc(Cl)s1 (centres unmarked) [C135, 3-(5-chlorothiophen-2-yl)-2-(2-methoxyethyl)-N-(3-methoxyphenyl)-1-oxo-1,2,3,4-tetrahydroisoquinoline-4-carboxamide] gave an IC50 [1] of 0.52 µg/mL (≈ 1.1 µM) and a CC50 at 72 h [2] of 56.7 µg/mL (≈ 120 µM).

With COCCN1C(=O)c2ccccc2C(C(=O)Nc2ccc(C(=O)NCc3ccccc3)cc2)C1c1cccs1 (centres unmarked) [C137, N-(4-(benzylcarbamoyl)phenyl)-2-(2-methoxyethyl)-1-oxo-3-(thiophen-2-yl)-1,2,3,4-tetrahydroisoquinoline-4-carboxamide] the IC50 [1] was 0.032 µg/mL (≈ 0.0593 µM) and the CC50 at 72 h [2] was 81.1 µg/mL (≈ 150 µM).

For COCCN1C(=O)c2ccccc2C(C(=O)Nc2ccc(C(=O)N(C)C)cc2)C1c1cccs1 (centres unmarked) [C139, N-(4-(dimethylcarbamoyl)phenyl)-2-(2-methoxyethyl)-1-oxo-3-(thiophen-2-yl)-1,2,3,4-tetrahydroisoquinoline-4-carboxamide], the IC50 [1] was 2.74 µg/mL (≈ 5.74 µM) and the CC50 at 72 h [2] was 75.3 µg/mL (≈ 158 µM).

In the case of CNC(=O)c1ccc(NC(=O)C2c3ccccc3C(=O)N(CCOC)C2c2cccs2)cc1 (centres unmarked) [C141, 2-(2-methoxyethyl)-N-(4-(methylcarbamoyl)phenyl)-1-oxo-3-(thiophen-2-yl)-1,2,3,4-tetrahydroisoquinoline-4-carboxamide], the IC50 [1] was 0.63 µg/mL (≈ 1.36 µM) and the CC50 at 72 h [2] was 73.8 µg/mL (≈ 159 µM).

COCCN1C(=O)c2cccc(OC)c2C(C(=O)Nc2cccc(OC)c2)C1c1cccs1 (centres unmarked) [C148, 5-methoxy-2-(2-methoxyethyl)-N-(3-methoxyphenyl)-1-oxo-3-(thiophen-2-yl)-1,2,3,4-tetrahydroisoquinoline-4-carboxamide] showed an IC50 [1] of 24.6 µg/mL (≈ 52.6 µM) and a CC50 at 72 h [2] of 52.1 µg/mL (≈ 112 µM).

COCCN1C(=O)c2c(ccc(OC)c2F)C(C(=O)Nc2ccc(-n3cccc3)cc2)C1c1cccs1 (centres unmarked) [C150, N-(4-(1H-pyrrol-1-yl)phenyl)-8-fluoro-7-methoxy-2-(2-methoxyethyl)-1-oxo-3-(thiophen-2-yl)-1,2,3,4-tetrahydroisoquinoline-4-carboxamide] showed an IC50 [1] of 0.08 µg/mL (≈ 0.154 µM) and a CC50 at 72 h [2] greater than 125 µg/mL.

Work on COCCN1C(=O)c2ccccc2C(C(=O)N(C)c2cccc(OC)c2)C1c1cccs1 (centres unmarked) [C151, 2-(2-methoxyethyl)-N-(3-methoxyphenyl)-N-methyl-1-oxo-3-(thiophen-2-yl)-1,2,3,4-tetrahydroisoquinoline-4-carboxamide] yielded an IC50 [1] of 22.8 µg/mL (≈ 50.7 µM) and a CC50 at 72 h [2] of 52 µg/mL (≈ 115 µM).

COCCN1C(=O)c2ccccc2C(C(=O)Nc2onc(C)c2C#N)C1c1cccs1 (centres unmarked) [C155, N-(4-cyano-3-methylisoxazol-5-yl)-2-(2-methoxyethyl)-1-oxo-3-(thiophen-2-yl)-1,2,3,4-tetrahydroisoquinoline-4-carboxamide] showed an IC50 [1] of 5.65 µg/mL (≈ 12.9 µM) and a CC50 at 72 h [2] of 76.4 µg/mL (≈ 175 µM).

COCCN1C(=O)c2ccccc2C(C(=O)Nc2cnccn2)C1c1cccs1 (centres unmarked) [C163, 2-(2-methoxyethyl)-1-oxo-N-(pyrazin-2-yl)-3-(thiophen-2-yl)-1,2,3,4-tetrahydroisoquinoline-4-carboxamide] gave an IC50 [1] of 5.23 µg/mL (≈ 12.8 µM) and a CC50 at 72 h [2] of 81 µg/mL (≈ 198 µM).

COCCN1C(=O)c2ccccc2C(C(=O)Nc2cccc(CO)c2)C1c1cccs1 (centres unmarked) [C166, N-(3-(hydroxymethyl)phenyl)-2-(2-methoxyethyl)-1-oxo-3-(thiophen-2-yl)-1,2,3,4-tetrahydroisoquinoline-4-carboxamide] gave an IC50 [1] of 0.38 µg/mL (≈ 0.87 µM) and a CC50 at 72 h [2] of 64.3 µg/mL (≈ 147 µM).

COCCN1C(=O)c2ccccc2C(C(=O)Nc2ccc(-n3cncn3)cc2)C1c1cccs1 (centres unmarked) [C167, N-(4-(1H-1,2,4-triazol-1-yl)phenyl)-2-(2-methoxyethyl)-1-oxo-3-(thiophen-2-yl)-1,2,3,4-tetrahydroisoquinoline-4-carboxamide] gave an IC50 [1] of 0.12 µg/mL (≈ 0.253 µM) and a CC50 at 72 h [2] of 60 µg/mL (≈ 127 µM).

Work on COCCN1C(=O)c2ccccc2C(C(=O)Nc2ccc3ncsc3c2)C1c1cccs1 (centres unmarked) [C170, N-(benzo[d]thiazol-6-yl)-2-(2-methoxyethyl)-1-oxo-3-(thiophen-2-yl)-1,2,3,4-tetrahydroisoquinoline-4-carboxamide] yielded an IC50 [1] of 0.12 µg/mL (≈ 0.259 µM) and a CC50 at 72 h [2] of 37.7 µg/mL (≈ 81.2 µM).

With COCCN1C(=O)c2ccccc2C(C(=O)Nc2cccc(-n3cccn3)c2)C1c1cccs1 (centres unmarked) [C172, N-(3-(1H-pyrazol-1-yl)phenyl)-2-(2-methoxyethyl)-1-oxo-3-(thiophen-2-yl)-1,2,3,4-tetrahydroisoquinoline-4-carboxamide] the IC50 [1] was 0.09 µg/mL (≈ 0.19 µM) and the CC50 at 72 h [2] was 14.5 µg/mL (≈ 30.6 µM).

COCCN1C(=O)c2ccccc2C(C(=O)Nc2ccc(-c3cccnc3)cc2)C1c1cccs1 (centres unmarked) [C173, 2-(2-methoxyethyl)-1-oxo-N-(4-(pyridin-3-yl)phenyl)-3-(thiophen-2-yl)-1,2,3,4-tetrahydroisoquinoline-4-carboxamide] showed an IC50 [1] of 0.09 µg/mL (≈ 0.186 µM) and a CC50 at 72 h [2] of 9.59 µg/mL (≈ 19.8 µM).

Compound COCCN1C(=O)c2ccccc2C(C(=O)Nc2ccc(Cn3cccn3)cc2)C1c1cccs1 (centres unmarked) [C174, N-(4-((1H-pyrazol-1-yl)methyl)phenyl)-2-(2-methoxyethyl)-1-oxo-3-(thiophen-2-yl)-1,2,3,4-tetrahydroisoquinoline-4-carboxamide] has an IC50 [1] of 0.15 µg/mL (≈ 0.308 µM) and a CC50 at 72 h [2] of 43 µg/mL (≈ 88.3 µM).

COCCN1C(=O)c2ccccc2C(C(=O)Nc2nc(C(C)(C)C)cs2)C1c1cccs1 (centres unmarked) [C177, N-(4-tert-butylthiazol-2-yl)-2-(2-methoxyethyl)-1-oxo-3-(thiophen-2-yl)-1,2,3,4-tetrahydroisoquinoline-4-carboxamide] gave an IC50 [1] of 0.5 µg/mL (≈ 1.06 µM) and a CC50 at 72 h [2] of 3.16 µg/mL (≈ 6.73 µM).

Work on COCCN1C(=O)c2ccccc2C(C(=O)Nc2ccn(C)n2)C1c1cccs1 (centres unmarked) [C180, 2-(2-methoxyethyl)-N-(1-methyl-1H-pyrazol-3-yl)-1-oxo-3-(thiophen-2-yl)-1,2,3,4-tetrahydroisoquinoline-4-carboxamide] yielded an IC50 [1] of 34.8 µg/mL (≈ 84.8 µM) and a CC50 at 72 h [2] of 80.8 µg/mL (≈ 197 µM).

COCCN1C(=O)c2ccccc2C(C(=O)Nc2ccc(CO)cc2)C1c1cccs1 (centres unmarked) [C181, N-(4-(hydroxymethyl)phenyl)-2-(2-methoxyethyl)-1-oxo-3-(thiophen-2-yl)-1,2,3,4-tetrahydroisoquinoline-4-carboxamide] gave an IC50 [1] of 0.25 µg/mL (≈ 0.573 µM) and a CC50 at 72 h [2] of 79.9 µg/mL (≈ 183 µM).

Compound COCCN1C(=O)c2ccccc2C(C(=O)Nc2cc(-c3ccco3)[nH]n2)C1c1cccs1 (centres unmarked) [C183, N-(5-(furan-2-yl)-1H-pyrazol-3-yl)-2-(2-methoxyethyl)-1-oxo-3-(thiophen-2-yl)-1,2,3,4-tetrahydroisoquinoline-4-carboxamide] has an IC50 [1] of 50.2 µg/mL (≈ 109 µM) and a CC50 at 72 h [2] of 77 µg/mL (≈ 166 µM).

COCCN1C(=O)c2ccccc2C(C(=O)Nc2cc(C(C)(C)C)[nH]n2)C1c1cccs1 (centres unmarked) [C185, N-(5-tert-butyl-1H-pyrazol-3-yl)-2-(2-methoxyethyl)-1-oxo-3-(thiophen-2-yl)-1,2,3,4-tetrahydroisoquinoline-4-carboxamide] showed an IC50 [1] of 10.4 µg/mL (≈ 23 µM) and a CC50 at 72 h [2] of 19 µg/mL (≈ 42 µM).

COCCN1C(=O)c2ccccc2C(C(=O)Nc2ccc3c(c2)COC3)C1c1cccs1 (centres unmarked) [C190, N-(1,3-dihydroisobenzofuran-5-yl)-2-(2-methoxyethyl)-1-oxo-3-(thiophen-2-yl)-1,2,3,4-tetrahydroisoquinoline-4-carboxamide] gave an IC50 [1] of 0.14 µg/mL (≈ 0.312 µM) and a CC50 at 72 h [2] of 75.9 µg/mL (≈ 169 µM).

Compound COCCN1C(=O)c2ccccc2C(C(=O)Nc2nc3ccc(F)cc3s2)C1c1cccs1 (centres unmarked) [C199, N-(6-fluorobenzo[d]thiazol-2-yl)-2-(2-methoxyethyl)-1-oxo-3-(thiophen-2-yl)-1,2,3,4-tetrahydroisoquinoline-4-carboxamide] has an IC50 [1] of 0.12 µg/mL (≈ 0.249 µM) and a CC50 at 72 h [2] of 5.97 µg/mL (≈ 12.4 µM).

For COCCN1C(=O)c2ccccc2C(C(=O)Nc2cccc(-n3cncn3)c2)C1c1cccs1 (centres unmarked) [C200, N-(3-(1H-1,2,4-triazol-1-yl)phenyl)-2-(2-methoxyethyl)-1-oxo-3-(thiophen-2-yl)-1,2,3,4-tetrahydroisoquinoline-4-carboxamide], the IC50 [1] was 0.32 µg/mL (≈ 0.676 µM) and the CC50 at 72 h [2] was 59.4 µg/mL (≈ 125 µM).

COCCN1C(=O)c2ccccc2C(C(=O)Nc2nc3ccc(Cl)cc3s2)C1c1cccs1 (centres unmarked) [C202, N-(6-chlorobenzo[d]thiazol-2-yl)-2-(2-methoxyethyl)-1-oxo-3-(thiophen-2-yl)-1,2,3,4-tetrahydroisoquinoline-4-carboxamide] gave an IC50 [1] of 0.17 µg/mL (≈ 0.341 µM) and a CC50 at 72 h [2] of 7.89 µg/mL (≈ 15.8 µM).

Compound COCCN1C(=O)c2ccccc2C(C(=O)Nc2ccc(-c3ccn(C)n3)cc2)C1c1cccs1 (centres unmarked) [C203, 2-(2-methoxyethyl)-N-(4-(1-methyl-1H-pyrazol-3-yl)phenyl)-1-oxo-3-(thiophen-2-yl)-1,2,3,4-tetrahydroisoquinoline-4-carboxamide] has an IC50 [1] of 0.019 µg/mL (≈ 0.039 µM) and a CC50 at 72 h [2] of 9.4 µg/mL (≈ 19.3 µM).

Work on COCCN1C(=O)c2ccccc2C(C(=O)Nc2ccc(-c3nnc(C)o3)cc2)C1c1cccs1 (centres unmarked) [C205, 2-(2-methoxyethyl)-N-(4-(5-methyl-1,3,4-oxadiazol-2-yl)phenyl)-1-oxo-3-(thiophen-2-yl)-1,2,3,4-tetrahydroisoquinoline-4-carboxamide] yielded an IC50 [1] of 0.034 µg/mL (≈ 0.0696 µM) and a CC50 at 72 h [2] of 38.8 µg/mL (≈ 79.5 µM).
